{"source": "patent US10799456B2", "about": "“Multiple drug lipid nanoparticle composition and related methods for extended drug levels in blood and lymph tissue” (priority 2015, dated 2020)", "key": {"HIV-2(287) replication": {"tested_on": "HIV-2(287) replication", "experiment": "Antiviral activity in HIV-infected CEM-174 cells", "type": "cell-based", "conditions": "Human immunodeficiency virus 2, CEM174, LPV:RTV:PMPA fixed 1:1:0.5 (m/m/m), LNP form; read-out: EC50 (nM), Drug-lipid nanoparticles with 3 drug combination", "method": "The antiviral activity of the three-drug combination in soluble or LNP form was evaluated in HIV-infected CEM-174 cells as described previously. […] J Acquir Immune Defic Syndr 2003; 34(4):387-397, incorporated herein by reference in its entirety. […] The dose of drugs added to cells represents the sum of bound and unbound drugs in these anti-HIV LNP formulations."}, "in vivo [1]": {"experiment": "in vivo", "conditions": "for concentration at 24 h: sc, Mean drug concentration, Plasma", "excerpt": "Four young adult male macaques (Macaca nemestrina, 2.9-4.0 kg) were housed and cared for by the Washington National Primate Research Center (WaNPRC) under an approved Institutional Animal Care and Use Committee protocol.\nThe vehicle for the first suspension was bicarbonate-buffered saline with 3% ethanol and 0.2% bovine serum albumin. The vehicle for the second suspension was bicarbonate-buffered saline with 8% DMSO and 0.1% Tween 20.\n(§1) Four macaques were divided into two treatment groups (two animals per group). […] Data were normalized to the anti-HIV LNP dose for comparative analysis.\n(§2) Plasma was removed, PBMCs were isolated by the density gradient method, and cells were aliquoted into pellets of approximately 2 million PBMCs each. An inguinal lymph node was surgically excised 24 h after drug administration (n=2 per treatment), LNMCs were isolated by passage through a 100-lm nylon cell strainer (Corning, Tewksbury, Mass.), and cells were aliquoted into pellets of approximately 1-2 million LNMCs each. All samples were stored at −80° C. prior to drug analysis.\n(§3) Plasma concentrations of all three drugs were analyzed simultaneously by liquid chromatography-tandem mass spectrometry using a recently published method. […] Antimicrob Agents Chemother 2014; 58(5):2675-2680, incorporated herein by reference in its entirety. PBMC and LNMC pellets were lysed using 200 μl water/methanol (1:1 v/v), sonicated for 10 min, and then extracted and analyzed using the same method as cited above. Intracellular concentrations were converted to ng/ml with the assumption that each cell has a volume of 4×10^−9 ml. Alberts B, Johnson A, Lewis J, et al. Molecular Biology of the Cell, 4 ed. Garland Science, New York, 2002, incorporated herein by reference in its entirety.\nData were analyzed by paired two-tailed Student's t-test with p<0.05 considered statistically significant."}, "[2]": {"experiment": "% Drug association to particles by assembly method", "type": "physicochemical", "excerpt": "Select one or two drugs hydrophilic and water soluble (Class 2) drugs listed in Table 19 (for example, tenofovir and/or emtricitabine and/or lamivudine). • 3. Select the excipient combination (for example, 9 parts DSPC and 1 part PEG-DSPE). • 4. Prepare a single-phase miscible solvent that enables full solubilization of the chosen water-insoluble Class 1 drugs and water soluble Class 2 drugs plus the excipients from step 3. Examples include CHCl3:Methanol:Water (65:35:4); CHCl3:Ethanol:Water (65:35:4); CHCl3:Propanol:Water (65:35:4); and CHCl3:Hexanol:Water (65:35:4). • 5. The components in Steps 1, 2 and 3 are solubilized with the miscible solvent in step 4. • 6. The drugs (steps 1 and 2) as well as excipients (step 3) and the miscible solvent (step 4) are dried under reduced pressure with assistance of a combination of heat, reduced pressure and/or aerosolization to provide for uniformity and efficiency of drying. • 7. The dehydrated composition is heated above gel-to-liquid phase transition temperature of the excipient mixture (e.g., 50° C.). • 8. A buffered saline solution is prepared and the temperature is equilibrated to the same temperature as dehydrated composition. • 9. The buffered saline solution and dehydrated composition are gradually combined and maintained at the defined (e.g., 50° C.) for 3 hr. • 10. The resulting hydrated multi-drug lipid nanoparticles are size-reduced by sheering or forcing through small orifice or pressurized filter apparatus while maintaining at the defined temperature (in liquid phase of lipidic excipients)."}, "[3]": {"experiment": "Storage stability at 4° C. (fraction of drug bound, dialysis)", "type": "physicochemical", "method": "To test the long-term stability, the multi-drug nanoparticles were stored under refrigeration at 4° C. and were tested for stability after a prolonged period. The lipid-drug combination particles are stable as determined by both particle size and degree of drug association (Table 12). […] Even the hydrophilic compound, which readily diffuses out of most lipid particles in a number of hours, loses a remarkably low fraction of the associated drug after 8, 12, and 17 months in storage. This exceptional stability provides a substantial advantage for translation to clinical application."}, "HIV-1": {"tested_on": "HIV-1", "experiment": "microbe, parasite or virus in culture", "conditions": "Human immunodeficiency virus 1, read-out: EC50 in LNP form"}, "[4]": {"experiment": "Sucrose gradient test of drug association", "type": "physicochemical", "conditions": "5-20% sucrose gradient, 200,000 g, 4 hr; LPV/RTV/TFV LNPs, single miscible solvent method", "method": "The sucrose gradient test to determine this characteristic is described in Example 5. Briefly, the sucrose gradient test comprises subjecting the multi-drug lipid nanoparticle to a continuous 5%-20% sucrose gradient and applying a centrifugal force of 200,000 g for 4 hours. The unassociated small molecules separate and float to the less dense fractions, whereas the associated small molecule agents sediment with the stable lipid nanoparticles in the denser gradients. The relative amounts of the unassociated and associated small molecule reagents can be quantified and, thus, compared.\nThe sucrose gradient test centrifugation test separates any unbound drugs from multi-drug lipid nanoparticles by sedimentation of lipid-drug particles through a sucrose gradient with increasing density to strip off unbound drugs. Under these conditions, all the free drugs in solution remained at (or floated to) the top of gradient where the sucrose density is low. Specifically, using a continuous gradient of 5-20% (with 65% cushion) sucrose, the lipid-drug particle mixture was subjected to centrifugal force at 200,000 g for 4 hr. Through this process, we were able to separate bound and unbound drug fractions. […] It is noted that the observed percentage of multi drug lipid nanoparticle association for the other two drugs (LPV and RTV) are consistent with data in Table 11."}, "[5]": {"experiment": "Drug incorporation/encapsulation (association) efficiency of multi-drug LNPs by dialysis", "type": "physicochemical", "conditions": "for Degree of incorporation (% total): anti-HIV LNPs LPV/RTV/PMPA", "method": "The anti-HIV LNP formulations contain both unbound drug and drugs bound to lipid nanoparticles. […] Drugs were quantified by LC-MS/MS using acetonitrile precipitation. Encapsulation efficiency (EE) was calculated as follows: […]"}, "in vivo [6]": {"experiment": "in vivo", "conditions": "male, Macaca nemestrina, in vivo, sc, Mean drug concentration, Lymph node", "method": "as §1, §2, §3"}, "[7]": {"conditions": "cited from earlier work"}, "[8]": {"experiment": "pH dependent drug release from LPV/RTV/TFV lipid nanoparticles", "type": "physicochemical", "conditions": "2 hrs", "excerpt": "As described above, we established the pH-dependent association of various drugs to lipids at neutral pH and the consequent release of the drugs when pH is lowered. Also described above, this stable integration and pH-dependent release of drugs from the multiple drug lipid nanoparticles was consistent for both lipophilic and water soluble compounds. To confirm the pH dependent release of the individual drugs from the multiple drug combination lipid nanoparticles, LPV/RTV/PMPA(TFV) lipid nanoparticles, assembled as described above, were subjected to different pH environments, and the free drug component of the supernatant was assayed to determine the amount of release. […] When a lipid nanoparticle is localized in tissues and taken up by HIV-infected cells, the incorporated antiretroviral drugs are then released inside the cell organelles (such as endosome and lysosomes) when the pH is lowered."}, "[9]": {"conditions": "male, Macaca nemestrina, in vivo"}}, "data": [{"smiles": "Cc1cccc(C)c1OCC(=O)N[C@@H](Cc1ccccc1)[C@@H](O)C[C@H](Cc1ccccc1)NC(=O)[C@H](C(C)C)N1CCCNC1=O", "note": "[Lopinavir (LPV), Lopinavir]", "values": [{"measurement": "EC50", "setting": "HIV-2(287) replication", "value": "3 ± 0.8", "unit": "nM"}, {"measurement": "AUC 0-8 (%) of total, LNP", "setting": "in vivo [1]; [9]", "value": 9.9, "unit": "%"}, {"measurement": "AUC 8-168 (%) of total, LNP", "setting": "in vivo [1]; [9]", "value": 90.1, "unit": "%"}, {"measurement": "AUC fraction (% of total) Anti-HIV LNP 24-168 h", "setting": "in vivo [1]; [9]", "value": "62.8 ± 9.9", "unit": "%"}, {"measurement": "concentration at 24 h", "setting": "in vivo [1]; male, Macaca nemestrina, in vivo, Anti-HIV LNP treatment", "value": "596 ± 123", "unit": "ng/mL"}, {"measurement": "concentration at 24 h", "setting": "in vivo [1]; male, Macaca nemestrina, in vivo, Free drug treatment", "value": "24.5 ± 26.3", "unit": "ng/mL"}, {"measurement": "AUC Free drug 0-168 h", "setting": "in vivo [1]; plasma, sc 25/14.3/17.1 mg/kg LPV/RTV/PMPA, four animals", "value": "3830 ± 4040", "unit": "ng·h/mL"}, {"measurement": "% Drug Association to Particles, LNPs from mixture of dual solvent method", "setting": "[2]", "value": "80-100%"}, {"measurement": "% Drug Association to Particles, LNPs from single, miscible solvent method", "setting": "[2]", "value": "90-100%"}, {"measurement": "Fraction of drug bound in multi-drug nanoparticles (% total)", "setting": "[3]; 0 months", "value": "82.70 ± 7.00", "unit": "%"}, {"measurement": "Fraction of drug bound in multi-drug nanoparticles (% total)", "setting": "[3]; 8 months", "value": "95.33 ± 7.53", "unit": "%"}, {"measurement": "Fraction of drug bound in multi-drug nanoparticles (% total)", "setting": "[3]; 12 months", "value": "94.62 ± 11.86", "unit": "%"}, {"measurement": "Fraction of drug bound in multi-drug nanoparticles (% total)", "setting": "[3]; 17 months, one batch", "value": 92.89, "unit": "%"}, {"measurement": "EC50", "setting": "HIV-1", "value": "30 ± 0.8", "unit": "nM"}, {"measurement": "% association to lipid-drug particles (bound fraction)", "setting": "[4]", "value": 81.8, "unit": "%"}, {"measurement": "% particle-bound", "setting": "[5]; Combination 1, lipid:LPV:RTV:TFV 115:10:5:15, large scale", "value": "(86.4 ± 0.9) %"}, {"measurement": "% particle-bound", "setting": "[5]; Combination 3, lipid:LPV:EFV:TFV 200:26.6:20:40, large scale", "value": "(76.6) %"}, {"measurement": "Degree of incorporation (% total)", "setting": "[5]; clinical scale (15-40 ml)", "value": "93.6 ± 5.5", "unit": "%"}, {"measurement": "Degree of incorporation (% total)", "setting": "[5]; laboratory scale (0.1-0.4 ml)", "value": "74.2 ± 7.3", "unit": "%"}, {"measurement": "concentration at 24 h", "setting": "in vivo [6]; Anti-HIV LNP treatment", "value": "1212 ± 9.8", "unit": "ng/mL"}, {"measurement": "concentration at 24 h", "setting": "in vivo [6]; Free drug treatment", "value": 0, "unit": "ng/mL"}, {"measurement": "Water solubility @ 25° C.", "setting": "[7]", "value": 7.7, "unit": "ng/mL"}, {"measurement": "% Drug released from anti-HIV nanoparticles", "setting": "[8]; pH 4.0, 37° C.", "value": "93.7 ± 1.2", "unit": "%"}, {"measurement": "% Drug released from anti-HIV nanoparticles", "setting": "[8]; pH 5.5, 37° C.", "value": "28.9 ± 1.4", "unit": "%"}, {"measurement": "% Drug released from anti-HIV nanoparticles", "setting": "[8]; pH 6.5, 37° C.", "value": "3.9 ± 2.7", "unit": "%"}, {"measurement": "% Drug released from anti-HIV nanoparticles", "setting": "[8]; pH 7.4, 37° C.", "value": "1 ± 0.6", "unit": "%"}]}]}
